According to patent publication US20150302167A1, “SYSTEM AND METHOD FOR DEVELOPMENT OF THERAPEUTIC SOLUTIONS” (CELLWORKS RESEARCH INDIA PRIVATE LIMITED, priority 2012, published 2015):

What was measured:
[1] = Type: Drug; published clinical trial data; cited from earlier work
[2] = Published clinical trial data of RA drugs: ACR20/ACR50/ACR70 response, drug vs placebo; assay type: in vivo, human; conditions: for ACR20 Diff. / ACR50 Diff. / ACR70 Diff.: Type: Diff. (drug minus placebo), * significant difference > 15%; for Highest Significant Clinical Disease Remission Score: highest ACR level with significant difference > 15% over placebo
From the text: In another embodiment, American College of Rheumatoid (ACR) scoring system and DAS28 scoring system are used to determine the extent of improvement in the RA disease symptoms on treatment with a drug.
In another embodiment, the ACR scoring system involves three main scores: ACR20 score pertaining to 20% improvement in the disease, ACR50 score pertaining to 50% improvement in the disease and ACR70 score pertaining to 70% improvement in the disease. Clinically, the calculation of the ACR score is dependent on inputs from a patient Health Assessment Questionnaire (HAQ) and analysis of the percentage improvement in the RA disease phenotypes. […]

| Molecule | ACR20 [1] | ACR50 [1] | ACR70 [1] | ACR20 Diff. [2] | ACR50 Diff. [2] | ACR70 Diff. [2] | Highest Significant Clinical Disease Remission Score [2] |
| --- | --- | --- | --- | --- | --- | --- | --- |
| CN(Cc1cnc2nc(N)nc(N)c2n1)c1ccc(C(=O)N[C@@H](CCC(=O)O)C(=O)O)cc1 [METHOTREXATE] | 46% | 23% | 9% | 20% | 15* % | 5% | ACR50 (ACR50 score pertaining to 50% improvement in the disease) |
| SECUKINUMAB | 54% | 27% | 12% | 23* % | 12% | 0% | ACR20 (ACR20 score pertaining to 20% improvement in the disease) |
| ETANERCEPT | 86% | 71% | 49% | 15% | 29% | 28* % | ACR70 (ACR70 score pertaining to 70% improvement in the disease) |
| ANAKINRA | 38% | 17% | 6% | 16* % | 9% | 4% | ACR20 (ACR20 score pertaining to 20% improvement in the disease) |
| C[C@@H]1CCN(C(=O)CC#N)C[C@@H]1N(C)c1ncnc2[nH]ccc12 [TOFACITINIB] |  |  |  | 66.5% | 57.7% | 20* % | ACR70 (ACR70 score pertaining to 70% improvement in the disease) |
| RITUXIMAB | 54% | 34% | 20% | 26% | 21% | 15* % | ACR70 (ACR70 score pertaining to 70% improvement in the disease) |
| DENOSUMAB | 23% | 9% | 1% | <0% | <0% | <0% | Non |
| TOCILIZUMAB | 74% | 53% | 37% | 33% | 24% | 21* % | ACR70 (ACR70 score pertaining to 70% improvement in the disease) |
| AMG714: RA drug with published clinical trial data, listed among various approved drugs (antibody, chains of the INN, looked up, V domains shown) VH: EVQLVQSGAEVKKPGESLKISCKVSGYFFTTYWIGWVRQMPGKGLEYMGIIYPGDSDTRYSPSFQGQVTISADKSISTAYLQWSSLKASDTAMYYCARGGNWNCFDYWGQGTLVTVSS VL: EIVLTQSPGTLSLSPGERATLSCRASQSVSSSYLAWYQQKPGQAPRLLIYGASRRATGIPDRFSGSGSGTDFTLTISRLEPEDFAVYYCQRYGSSHTFGQGTKLEIS | 62% | 0% | 0% | 36* % | 0% | 0% | ACR20 (ACR20 score pertaining to 20% improvement in the disease) |
